The source of these data is US20250230154A1, “COMPOUND HAVING SHP2 PROTEIN DEGRADING ACTIVITY, AND MEDICAL USES THEREOF” (UBIX THERAPEUTICS, INC., priority 2021, published 2025).

The target of this experiment is T1, SHP2 protein (Homo sapiens, UniProt Q06124).
T1 sequence (Q06124 1-593): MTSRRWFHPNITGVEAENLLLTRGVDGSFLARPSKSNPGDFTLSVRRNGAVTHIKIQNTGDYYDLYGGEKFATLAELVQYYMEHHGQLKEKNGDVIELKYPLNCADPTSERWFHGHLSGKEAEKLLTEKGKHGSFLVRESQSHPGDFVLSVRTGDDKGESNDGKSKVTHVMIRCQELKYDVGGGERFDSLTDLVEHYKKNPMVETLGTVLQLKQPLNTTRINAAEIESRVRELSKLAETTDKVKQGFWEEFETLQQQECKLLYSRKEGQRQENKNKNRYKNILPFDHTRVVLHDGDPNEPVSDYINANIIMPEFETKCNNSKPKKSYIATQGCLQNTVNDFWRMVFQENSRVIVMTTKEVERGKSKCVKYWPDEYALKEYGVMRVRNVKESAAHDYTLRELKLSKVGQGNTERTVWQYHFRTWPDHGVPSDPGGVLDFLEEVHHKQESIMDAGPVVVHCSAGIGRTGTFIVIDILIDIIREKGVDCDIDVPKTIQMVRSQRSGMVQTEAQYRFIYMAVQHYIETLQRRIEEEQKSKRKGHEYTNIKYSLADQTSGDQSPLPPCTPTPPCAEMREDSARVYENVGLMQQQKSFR
Briefly: Measurement of SHP2 protein degradation in MV-4-11 cells (western blotting). Also noted: endogenous in cells; host or cells: MV-4-11. The class given is cell-based. The following applies: MV-4-11 cells, 24 hours. In outline: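 SHP2 protein levels were assessed by western blotting in MV-4-11 cells after a 24 hour compound treatment. Lysates were sonicated, centrifuged, normalized by BCA assay at 562 nm, run on Bis-tris 4-12% gels, transferred to NC membrane, probed with anti-SHPTP2 (70 kDa) and anti-GAPDH (37 kDa) antibodies, and detected on LI-COR Odyssey.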

Structures are written as SMILES.

Regarding `Cc1ncsc1-c1ccc(CNC(=O)[C@@H]2C[C@@H](O)CN2C(=O)[C@@H](NC(=O)C2(F)CC2)C(C)(C)C)c(OCC2CCN(C(=O)CC(=O)Nc3cccc(Sc4cnc(N5CCC(C)(N)CC5)cn4)c3Cl)CC2)c1` [Example 29, (2S,4R)—N-(2-((1-(3-((3-((5-(4-amino-4-methylpiperidin-1-yl)pyrazin-2-yl)thio)-2-chlorophenyl)amino)-3-oxopropanoyl)piperidin-4-yl)methoxy)-4-(4-methylthiazol-5-yl)benzyl)-1-((S)-2-(1-fluorocyclopropane-1-carboxamido)-3,3-dimethylbutanoyl)-4-hydroxypyrrolidine-2-carboxamide], the “SHP2 degradation (%) 10 nM” value came to 84% and the “SHP2 degradation (%) 100 nM” value is listed as 95.5%.

Take `Cc1ncsc1-c1ccc(CNC(=O)[C@@H]2C[C@@H](O)CN2C(=O)[C@@H](NC(=O)C2(F)CC2)C(C)(C)C)c(OCCN2CCN(C(=O)CC(=O)Nc3cccc(Sc4cnc(N5CCC(C)(CN)CC5)cn4)c3Cl)[C@@H](C)C2)c1` [Example 63, (2S,4R)—N-(2-(2-((S)-4-(3-((3-((5-(4-(aminomethyl)-4-methylpiperidin-1-yl)pyrazin-2-yl)thio)-2-chlorophenyl)amino)-3-oxopropanoyl)-3-methylpiperazin-1-yl)ethoxy)-4-(4-methylthiazol-5-yl)benzyl)-1-((S)-2-(1-fluorocyclopropane-1-carboxamido)-3,3-dimethylbutanoyl)-4-hydroxypyrrolidine-2-carboxamide]: the “SHP2 degradation (%) 10 nM” value is on record as 90.5% and the “SHP2 degradation (%) 100 nM” value is 97%.

Turning to `Cc1ncsc1-c1ccc(CNC(=O)[C@@H]2C[C@@H](O)CN2C(=O)[C@@H](NC(=O)C2(F)CC2)C(C)(C)C)c(OCCC2CCN(C(=O)CC(=O)Nc3cccc(Sc4cnc(N5CCC(C)(CN)CC5)cn4)c3Cl)CC2)c1` [Example 36, (2S,4R)—N-(2-(2-(1-(3-((3-((5-(4-(aminomethyl)-4-methylpiperidin-1-yl)pyrazin-2-yl)thio)-2-chlorophenyl)amino)-3-oxopropanoyl)piperidin-4-yl)ethoxy)-4-(4-methylthiazol-5-yl)benzyl)-1-((S)-2-(1-fluorocyclopropane-1-carboxamido)-3,3-dimethylbutanoyl)-4-hydroxypyrrolidine-2-carboxamide], the “SHP2 degradation (%) 10 nM” value turned out to be 83.0% and the “SHP2 degradation (%) 100 nM” value amounted to 93.5%. For the same compound, the “SHP2 degradation (%) 1000 nM” value (1000 nM) came to 93.5%.

`Cc1ncsc1-c1ccc(CNC(=O)[C@@H]2C[C@@H](O)CN2C(=O)[C@@H](NC(=O)C2(F)CC2)C(C)(C)C)c(OCCCC2CCN(C(=O)CC(=O)Nc3cccc(Sc4ncc(N5CCC(C)(N)CC5)nc4N)c3Cl)CC2)c1` [Example 40, (2S,4R)—N-(2-(3-(1-(3-((3-((3-amino-5-(4-amino-4-methylpiperidin-1-yl)pyrazin-2-yl)thio)-2-chlorophenyl)amino)-3-oxopropanoyl)piperidin-4-yl)propoxy)-4-(4-methylthiazol-5-yl)benzyl)-1-((S)-2-(1-fluorocyclopropane-1-carboxamido)-3,3-dimethylbutanoyl)-4-hydroxypyrrolidine-2-carboxamide]: the “SHP2 degradation (%) 10 nM” value amounted to 67.0% and the “SHP2 degradation (%) 100 nM” value was found to be 95.0%.

Regarding `Cc1ncsc1-c1ccc(CNC(=O)[C@@H]2C[C@@H](O)CN2C(=O)[C@@H](NC(=O)C2(F)CC2)C(C)(C)C)c(OCCN2CCN(c3ccc(C(=O)Nc4cccc(Sc5cnc(N6CCC(C)(CN)CC6)cn5)c4Cl)nn3)CC2)c1` [Example 85, N-(3-((5-(4-(aminomethyl)-4-methylpiperidin-1-yl)pyrazin-2-yl)thio)-2-chlorophenyl)-6-(4-(2-(2-(((2S,4R)-1-((S)-2-(1-fluorocyclopropane-1-carboxamido)-3,3-dimethylbutanoyl)-4-hydroxypyrrolidine-2-carboxamido)methyl)-5-(4-methylthiazol-5-yl)phenoxy)ethyl)piperazin-1-yl)pyridazine-3-carboxamide], the “SHP2 degradation (%) 10 nM” value is listed as 73% and the “SHP2 degradation (%) 100 nM” value was 97.5%.

Take `Cc1ncsc1-c1ccc(CNC(=O)[C@@H]2C[C@@H](O)CN2C(=O)[C@@H](NC(=O)C2(F)CC2)C(C)(C)C)c(OCCN2CCN(C(=O)CC(=O)Nc3cccc(Sc4cnc(N5CCC(C)(N)CC5)cn4)c3Cl)CC2)c1` [Example 53, (2S,4R)—N-(2-(2-(4-(3-((3-((5-(4-amino-4-methylpiperidin-1-yl)pyrazin-2-yl)thio)-2-chlorophenyl)amino)-3-oxopropanoyl)piperazin-1-yl)ethoxy)-4-(4-methylthiazol-5-yl)benzyl)-1-((S)-2-(1-fluorocyclopropane-1-carboxamido)-3,3-dimethylbutanoyl)-4-hydroxypyrrolidine-2-carboxamide]: the “SHP2 degradation (%) 10 nM” value is given as 83.9% and the “SHP2 degradation (%) 100 nM” value is on record as 97.8%.

With `Cc1ncsc1-c1ccc(CNC(=O)[C@@H]2C[C@@H](O)CN2C(=O)[C@@H](NC(=O)C2(F)CC2)C(C)(C)C)c(OC2CC3(CCN(C(=O)CC(=O)Nc4cccc(Sc5cnc(N6CCC(C)(CN)CC6)cn5)c4Cl)CC3)C2)c1` [Example 50, (2S,4R)—N-(2-((7-(3-((3-((5-(4-(aminomethyl)-4-methylpiperidin-1-yl)pyrazin-2-yl)thio)-2-chlorophenyl)amino)-3-oxopropanoyl)-7-azaspiro[3.5]nonan-2-yl)oxy)-4-(4-methylthiazol-5-yl)benzyl)-1-((S)-2-(1-fluorocyclopropane-1-carboxamido)-3,3-dimethylbutanoyl)-4-hydroxypyrrolidine-2-carboxamide], the “SHP2 degradation (%) 10 nM” value worked out at 91.5% and the “SHP2 degradation (%) 100 nM” value was 98.4%.

As for `Cc1ncsc1-c1ccc(CNC(=O)[C@@H]2C[C@@H](O)CN2C(=O)[C@@H](NC(=O)C2(F)CC2)C(C)(C)C)c(OCCN2CCN(C(=O)CC(=O)Nc3cccc(Sc4cnc(N5CCC(C)(CN)CC5)cn4)c3Cl)C[C@@H]2C(=O)O)c1` [Example 70, (R)-4-(3-((3-((5-(4-(aminomethyl)-4-methylpiperidin-1-yl)pyrazin-2-yl)thio)-2-chlorophenyl)amino)-3-oxopropanoyl)-1-(2-(2-(((2S,4R)-1-((S)-2-(1-fluorocyclopropane-1-carboxamido)-3,3-dimethylbutanoyl)-4-hydroxypyrrolidine-2-carboxamido)methyl)-5-(4-methylthiazol-5-yl)phenoxy)ethyl)piperazine-2-carboxylic Acid], the “SHP2 degradation (%) 10 nM” value came out at 14.4% and the “SHP2 degradation (%) 100 nM” value is given as 59.2%.
